Consider one molecule from PMC11206988, “Study on the Effect of Pharmaceutical Excipient PEG400 on the Pharmacokinetics of Baicalin in Cells Based on MRP2, MRP3, and BCRP Efflux Transporters” (Pharmaceutics, 2024).

The test system of series [1] is HepG2 cells. In words: Pharmacokinetic study of baicalin in HepG2 cells (intracellular concentrations by UPLC-MS/MS). It counts as in vitro ADME, human. Particulars: HepG2 cells. On the procedure:
(§1) The samples were quantified by UPLC-MS/MS, which consisted of a Dionex Ultimate 3000 UPLC system (Thermo Fisher Scientific, Waltham, MA, USA) and a triple quadrupole tandem mass spectrometer (Thermo Fisher Scientific, Waltham, MA, USA). The mass spectrometry was performed using an ESI ion source and in positive ion mode. The chromatograms are shown in Figure S1 of the Supplementary Materials. The samples were analyzed by a Waters XBridge BEH C18 column (2.1 × 100 mm). Mobile phase A consists of acetonitrile, while mobile phase B consists of water containing 0.1% formic acid. The elution program was as follows: B was initially 90%, 0 to 9 min B decreased from 90% to 27%, and 9.1 min to 12 min increased from 27% to 90% B. The flow rate of the mobile phase was 0.3 mL/min, the temperature of the automatic injector was 5 °C, and the injection volume was 10 μL. The m/z for BG and B6G was 447 → 271, for baicalein m/z 271 → 123, and for genistein (IS) m/z 271 → 153. Other mass spectrometry parameters included sheath gas (Arb) pressure, 20 psi, and auxiliary gas (Arb) pressure, 2 psi; source voltage, 4.8 KV, and capillary voltage, 2.5 KV; and ion-transfer-tube temperature, 375 °C, and atomization temperature, 275 °C.
(§2) HepG2 cells were cultured at a density of 1×10^5 cells/mL in 12-well plates for 24 h to facilitate the conduct of cellular pharmacokinetic experiments. The old medium was aspirated and discarded, the wells were rinsed twice with PBS, and 1 mL of 100 μM baicalin and baicalin + PEG400 (0.25%, 0.5%, and 1%) was added into 12-well plates to initiate the timer. The culture was terminated after 0.25 h, 0.5 h, 1 h, 2 h, 4 h, 6 h, 8 h, 10 h, 12 h, and 24 h, respectively. Upon reaching the designated time for administration, the cell culture medium was removed, and the wells were washed with 1 mL of cold PBS solution. Subsequently, 240 μL of ultra-pure water were added to each well, and the sample was stored at −80 °C until analysis. The sample was subjected to sonication in an ice bath for 10 min in order to lyse the cells, thereby enabling the determination of the accumulated drug concentration within the cells. Subsequently, 20 μL of the cell lysate was collected, and the protein concentration was quantified using a BCA kit for normalization.
(§3) After repeated freeze-thaw lysis, 100 μL of cell samples were taken, and 300 μL of 0.2% formic acid acetonitrile (containing 200 ng/mL genistein) were added to the vortex for 10 min to precipitate proteins and then centrifuged at 14,000 r/min for 10 min. Then the supernatant was blown dry under nitrogen at 40 °C and then reconstituted with 200 μL of methanol and centrifuged at 14,000 rpm for 10 min. The supernatant was subjected to UPLC-MS/MS analysis.

Experiment in series [2]: as above
It counts as in vitro ADME, human. To be noted: human, intracellular; for AUC(0-t) at 100 μM / Cmax at 100 μM / half-life at 100 μM: HepG2 cells. On the procedure:
as §1, §2, §3

Setting [3] is: HepG2 cells given 100 μM baicalin + H PEG400 (1%).
The mark [4] stands for this setting: HepG2 cells given 100 μM baicalin + L PEG400 (0.25%).
[5] abbreviates: HepG2 cells given 100 μM baicalin + M PEG400 (0.5%).
Where [6] appears, read: HepG2 cells given 100 μM baicalin alone (group BG, control).

By AUC(0-t) is commonly meant the area under the concentration-time curve up to a stated or last time point. As a reminder, the Cmax is the highest concentration seen after dosing. The half-life is how long it takes for the measured level to halve. As usually defined, the Tmax is the time from dosing to the highest level.

As for `O=C(O)[C@H]1O[C@@H](Oc2cc3oc(-c4ccccc4)cc(=O)c3c(O)c2O)[C@H](O)[C@@H](O)[C@@H]1O` [BG, Baicalein-7-O-β-D-glucuronide], the “AUC0–t increase compared with the control group” value is recorded as 1.72 fold in series [1] (baicalin + high PEG400 (1%) vs baicalin alone), 1.41 fold in series [1] (baicalin + low PEG400 (0.25%) vs baicalin alone) and 1.48 fold in series [1] (baicalin + medium PEG400 (0.5%) vs baicalin alone). Further, the exposure AUC(0-t) at 100 μM in series [2] (setting [3]) is 130 ± 5.26 µg·h/mL; in series [2] (setting [4]) it was 107 ± 2.22 µg·h/mL; in series [2] (setting [5]), 112 ± 3.99 µg·h/mL; in series [2] (HepG2 cells given 100 μM baicalin alone (group BG, control), 0.25-24 h), 76 ± 2.57 µg·h/mL. For the same molecule, the maximum concentration (Cmax) at 100 μM in series [2] (setting [3]) was determined as 10800 ± 350 ng/mL; in series [2] (setting [4]), 10200 ± 1480 ng/mL; in series [2] (setting [5]), 11200 ± 1500 ng/mL; in series [2] (setting [6]), 7840 ± 110 ng/mL. Also, the half-life at 100 μM was 326 ± 54.6 min in series [2] (setting [3]), 595 ± 226 min in series [2] (setting [4]), 361 ± 254 min in series [2] (setting [5]) and 406 ± 355 min in series [2] (setting [6]). Also, in series [2] (setting [6]), the time of peak concentration (Tmax) at 100 μM amounted to 6 h.
